Results as given in the supplement of paper PMC4862054.

What was measured:
Settings in all cases: incubation time: 72 h
MFM-223 = assay: normalised viability (% of control), CellTiter-Blue; higher = more viable cells (about 100 = DMSO control)
Method in brief: (§1)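 384-well plates were pre-loaded with compound in 5 µl medium before 20 µl of breast cancer cell suspension was seeded. Following 72 h incubation, 2.5 µl CellTiter-Blue reagent was added for 2 h at 37 °C. Fluorescence was read at 560/590 nm and plates were normalised to vehicle (100) and a positive kill control (0), checked by Z'-factor. Normalised viability is reported at a single listed concentration of the series.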

SK-BR-3 = assay: as above
Method in brief: as §1

CAL-51 = assay: as above
Method in brief: as §1

HDQ-P1 = assay: as above
Method in brief: as §1

MDA-MB-436 [1] = assay: as above
Method in brief: as §1

DU-4475 = assay: as above
Method in brief: as §1

BT-549 = assay: as above
Method in brief: as §1

MDA-MB-231 = assay: as above
Method in brief: as §1

CAL-148 [2] = assay: as above
Method in brief: as §1

HCC1599 = assay: as above
Method in brief: as §1

BT-474 = assay: as above
Method in brief: as §1

HCC1937 = assay: as above
Method in brief: as §1

MDA-MB-468 = assay: as above
Method in brief: as §1

Hs578T = assay: as above
Method in brief: as §1

MDA-MB-453 = assay: as above
Method in brief: as §1

HCC1143 = assay: as above
Method in brief: as §1

CAL-85-1 = assay: as above
Method in brief: as §1

CAL-120 = assay: as above
Method in brief: as §1

MDA-MB-436 [3] = assay: drug sensitivity score (DSS), CellTiter-Glo (DSS (AUC-based score)); higher = stronger drug effect (viability inhibition or cytotoxicity); extreme values may be limits of the assay
Method in brief: (§2)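 Breast cancer cells were seeded into 384-well plates containing compound at 5 concentrations in 10-fold steps over a compound-specific 10,000-fold range and incubated 72 h. After CellTox Green and CellTiter-Glo readings, each plate was normalised to 0.1 % DMSO and a positive kill control. The drug sensitivity score rests on the area under the fitted dose-response curve.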

CAL-148 [4] = assay: as above
Method in brief: as §2

C[C@]12C=CC(=O)C=C1CC[C@@H]1[C@@H]2C(=O)C[C@@]2(C)[C@H]1CC[C@]2(O)C(=O)CO [Prednisone]
normalised viability [%]
Settings | 3 nM | 10 nM | 30 nM | 100 nM | 1000 nM | 10000 nM
BT-474 | – | 133 | – | – | 109 | 111
BT-549 | – | 96.7 | – | – | 107 | 108
CAL-51 | 104 | – | 98.3 | 103 | – | –
CAL-85-1 | 95.8 | – | 102 | 90.9 | – | –
CAL-120 | – | 79.9 | – | – | 79.3 | 96.3
CAL-148 [2] | 94.8 | – | 97.4 | 104 | – | –
DU-4475 | 90.2 | – | 94.9 | 88.4 | – | –
HCC1143 | – | 91 | – | – | 89.1 | 86.8
HCC1599 | – | 102 | – | – | 103 | 94
HCC1937 | – | 95.7 | – | – | 105 | 98.9
HDQ-P1 | 98.3 | – | 110 | 114 | – | –
Hs578T | – | 121 | – | – | 108 | 105
MDA-MB-231 | – | 97 | – | – | 101 | 108
MDA-MB-436 [1] | – | 91.3 | – | – | 70.5 | 109
MDA-MB-453 | 106 | – | 115 | 113 | – | –
MDA-MB-468 | – | 98.6 | – | – | 104 | 98
MFM-223 | – | 91.7 | – | – | 89.7 | 94.8
SK-BR-3 | – | 101 | – | – | 111 | 113

Settings | drug sensitivity score
CAL-148 [4] | 0
MDA-MB-436 [3] | 0

CO[C@H]1C[C@@H]2CC[C@@H](C)[C@@](O)(O2)C(=O)C(=O)N2CCCC[C@H]2C(=O)O[C@H]([C@H](C)C[C@@H]2CC[C@@H](O)[C@H](OC)C2)CC(=O)[C@H](C)/C=C(\C)[C@@H](O)[C@@H](OC)C(=O)[C@H](C)C[C@H](C)/C=C/C=C/C=C/1C [Sirolimus]
normalised viability [%]
Settings | 0.3 nM | 1 nM | 3 nM | 10 nM | 100 nM | 1000 nM
BT-474 | – | 74.7 | – | – | 75.1 | 67.5
BT-549 | – | 55.6 | – | – | 57.5 | 45.2
CAL-51 | 80 | – | 45.8 | 34.5 | – | –
CAL-85-1 | 86.1 | – | 58.2 | 66 | – | –
CAL-120 | – | 79.6 | – | – | 53.4 | 47.3
CAL-148 [2] | 96.1 | – | 53.9 | 53.3 | – | –
DU-4475 | 99.1 | – | 61.4 | 65.8 | – | –
HCC1143 | – | 90.3 | – | – | 71.6 | 71.4
HCC1599 | – | 88.4 | – | – | 56.7 | 75.3
HCC1937 | – | 58 | – | – | 46.3 | 59
HDQ-P1 | 88.9 | – | 66.3 | 71.3 | – | –
Hs578T | – | 65.5 | – | – | 53.1 | 51.8
MDA-MB-231 | – | 74 | – | – | 62.8 | 87
MDA-MB-436 [1] | – | 93.3 | – | – | 84.5 | 87.2
MDA-MB-453 | 86.1 | – | 34.2 | 32.2 | – | –
MDA-MB-468 | – | 70.2 | – | – | 65.3 | 69.5
MFM-223 | – | 56.2 | – | – | 47.5 | 47.1
SK-BR-3 | – | 84.8 | – | – | 48.4 | 43

Settings | drug sensitivity score
CAL-148 [4] | 6.47
MDA-MB-436 [3] | 3.52

CN1CCN(c2nc(C3=C(c4c[nH]c5ccccc45)C(=O)NC3=O)c3ccccc3n2)CC1 [Sotrastaurin]
normalised viability [%]
Settings | 3 nM | 10 nM | 30 nM | 100 nM | 1000 nM | 10000 nM
BT-474 | – | 112 | – | – | 109 | 94.6
BT-549 | – | 82.5 | – | – | 92.8 | 74.2
CAL-51 | 94.4 | – | 91 | 90.9 | – | –
CAL-85-1 | 106 | – | 111 | 130 | – | –
CAL-120 | – | 110 | – | – | 118 | 110
CAL-148 [2] | 115 | – | 113 | 119 | – | –
DU-4475 | 98.6 | – | 94 | 115 | – | –
HCC1143 | – | 135 | – | – | 119 | 120
HCC1599 | – | 121 | – | – | 108 | 101
HCC1937 | – | 54.1 | – | – | 81.4 | 95.1
HDQ-P1 | 88.9 | – | 98.8 | 94.1 | – | –
Hs578T | – | 98.7 | – | – | 98.4 | 87.2
MDA-MB-231 | – | 94.5 | – | – | 101 | 124
MDA-MB-436 [1] | – | 112 | – | – | 59.1 | 107
MDA-MB-453 | 102 | – | 105 | 87.7 | – | –
MDA-MB-468 | – | 95.6 | – | – | 93 | 89.8
MFM-223 | – | 103 | – | – | 93.8 | 74
SK-BR-3 | – | 95.6 | – | – | 103 | 73.1

Settings | drug sensitivity score
CAL-148 [4] | 0
MDA-MB-436 [3] | 0

CC/C(=C(\c1ccccc1)c1ccc(OCCN(C)C)cc1)c1ccccc1 [Tamoxifen]
normalised viability [%]
Settings | 3 nM | 10 nM | 30 nM | 100 nM | 1000 nM | 10000 nM
BT-474 | – | 111 | – | – | 117 | 77.5
BT-549 | – | 83.3 | – | – | 82.8 | 56.5
CAL-51 | 89.5 | – | 92.2 | 93.4 | – | –
CAL-85-1 | 100 | – | 92 | 116 | – | –
CAL-120 | – | 110 | – | – | 100 | 82.1
CAL-148 [2] | 111 | – | 105 | 127 | – | –
DU-4475 | 99.9 | – | 95.7 | 110 | – | –
HCC1143 | – | 113 | – | – | 110 | 120
HCC1599 | – | 102 | – | – | 107 | 90
HCC1937 | – | 83.4 | – | – | 83.1 | 98.6
HDQ-P1 | 109 | – | 100 | 110 | – | –
Hs578T | – | 122 | – | – | 123 | 104
MDA-MB-231 | – | 93.1 | – | – | 94.6 | 115
MDA-MB-436 [1] | – | 101 | – | – | 94.7 | 40.1
MDA-MB-453 | 98.4 | – | 85.2 | 103 | – | –
MDA-MB-468 | – | 100 | – | – | 106 | 9.44
MFM-223 | – | 89 | – | – | 87.7 | 54.1
SK-BR-3 | – | 101 | – | – | 107 | 80.9

Settings | drug sensitivity score
CAL-148 [4] | 0
MDA-MB-436 [3] | 0
